# Results: article PMC10056986 (Pharmaceuticals, 2023)
# Read-outs that look alike come from different tables or passages of the source.
# Tests used:
# [1] = Cytotoxicity in parallel to antiviral assay; conditions: human
# EV71 Shenzhen/120F1/09 = assay: microbe, parasite or virus in culture; assay type: cell-based, human enterovirus 71; conditions: Enterovirus A, EV71, RD, read-out: EC50 for Virus
# HSV-1 GHSV-UL46 = assay: microbe, parasite or virus in culture; assay type: cell-based, herpes simplex virus type 1; conditions: Human alphaherpesvirus 1, Vero C1008, read-out: EC50 for Virus
# [2] = Cytotoxicity in parallel to antiviral assay; conditions: African green monkey
# in vitro [3] = conditions: human
# HBV = assay: microbe, parasite or virus in culture; assay type: cell-based; conditions: Hepatitis B virus, HepG2.2.15, read-out: EC50 for Virus
# [4] = tested on: Influenza virus A/Mal/302/54 (H1N1); assay: microbe, parasite or virus in culture; assay type: cell-based; conditions: H1N1, MDCK, read-out: EC50 (mean ± SD)
# [5] = tested on: A/Qingyuan/GIRD01/2017 (H7N9); assay: microbe, parasite or virus in culture; assay type: cell-based, avian influenza virus; conditions: Influenza A virus, H7N9, MDCK, read-out: IC50 (mean ± SD)
# [6] = tested on: Influenza virus A/WS/33 (H1N1); assay: microbe, parasite or virus in culture; assay type: cell-based; conditions: H1N1, MDCK, read-out: EC50 (mean ± SD)
# [7] = tested on: Influenza virus A/PR/8/34 (H1N1); assay: microbe, parasite or virus in culture; assay type: cell-based; conditions: H1N1|PR/8, MDCK, read-out: EC50 (mean ± SD)
# [8] = tested on: influenza A virus WSN/33 (H1N1); design: species or system BALB/c mice; conditions: mouse, in vivo
# [9] = tested on: influenza A virus/California/07/2009 (H1N1); design: species or system ferrets; conditions: in vivo, po, 25 mg/kg/day
# Influenza virus B/Lee/40 = assay: microbe, parasite or virus in culture; assay type: cell-based; conditions: MDCK, read-out: EC50 (mean ± SD)
# MDCK cells = assay: Cytotoxicity in MDCK cells without viral infection; conditions: MDCK, 37 °C
# [10] = Cytotoxicity in MDCK cells without viral infection; conditions: dog
# A/Anhui/01/2013 (H7N9) = assay: microbe, parasite or virus in culture; assay type: cell-based, avian influenza virus; conditions: Influenza A virus, H7N9, MDCK, read-out: IC50 (mean ± SD)
# [11] = tested on: Influenza virus A/Weiss/43(H1N1); assay: microbe, parasite or virus in culture; assay type: cell-based; conditions: H1N1, MDCK, read-out: EC50 (mean ± SD)
# [12] = tested on: influenza A virus WSN/33 (H1N1); design: species or system BALB/c mice; conditions: mouse, in vivo; remark: listed apart in the source
# [13] = tested on: Influenza virus A/WSN/33 (H1N1); assay: microbe, parasite or virus in culture; assay type: cell-based; conditions: MDCK, read-out: EC50 (mean ± SD)
# A/PR/8/34 (H1N1) = tested on: A/PR/8/34 (H1N1); design: species or system BALB/c mice; conditions: mouse, in vivo
# [14] = tested on: A/Guangzhou/39715/2014 (H5N6); assay: microbe, parasite or virus in culture; assay type: cell-based, avian influenza virus; conditions: unidentified influenza virus, H5N6, MDCK, read-out: IC50 (mean ± SD)
# [15] = Cytotoxicity in parallel to antiviral assay; conditions: human; remark: listed apart in the source
# HRV 1B = assay: microbe, parasite or virus in culture; assay type: cell-based; conditions: Human rhinovirus sp., H1-HeLa, read-out: EC50 for Virus
# CDK2 = CDK2 (Homo sapiens, UniProt P24941); assay: biochemical
# [16] = tested on: influenza A virus WSN/33 (H1N1); design: species or system BALB/c mice; conditions: mouse, in vivo; remark: listed apart in the source
# p38 alpha = p38 alpha (Homo sapiens, UniProt Q16539); assay: biochemical
# [17] = tested on: Influenza virus A/California/2/2014 (H3N2); assay: microbe, parasite or virus in culture; assay type: cell-based; conditions: H3N2, MDCK, read-out: EC50 (mean ± SD)
# DYRK3 = DYRK3 (Homo sapiens, UniProt O43781); assay: biochemical
# TAOK2 = TAOK2 (Homo sapiens, UniProt Q9UL54); assay: biochemical
# TAOK2, sequence (Q9UL54 whole entry): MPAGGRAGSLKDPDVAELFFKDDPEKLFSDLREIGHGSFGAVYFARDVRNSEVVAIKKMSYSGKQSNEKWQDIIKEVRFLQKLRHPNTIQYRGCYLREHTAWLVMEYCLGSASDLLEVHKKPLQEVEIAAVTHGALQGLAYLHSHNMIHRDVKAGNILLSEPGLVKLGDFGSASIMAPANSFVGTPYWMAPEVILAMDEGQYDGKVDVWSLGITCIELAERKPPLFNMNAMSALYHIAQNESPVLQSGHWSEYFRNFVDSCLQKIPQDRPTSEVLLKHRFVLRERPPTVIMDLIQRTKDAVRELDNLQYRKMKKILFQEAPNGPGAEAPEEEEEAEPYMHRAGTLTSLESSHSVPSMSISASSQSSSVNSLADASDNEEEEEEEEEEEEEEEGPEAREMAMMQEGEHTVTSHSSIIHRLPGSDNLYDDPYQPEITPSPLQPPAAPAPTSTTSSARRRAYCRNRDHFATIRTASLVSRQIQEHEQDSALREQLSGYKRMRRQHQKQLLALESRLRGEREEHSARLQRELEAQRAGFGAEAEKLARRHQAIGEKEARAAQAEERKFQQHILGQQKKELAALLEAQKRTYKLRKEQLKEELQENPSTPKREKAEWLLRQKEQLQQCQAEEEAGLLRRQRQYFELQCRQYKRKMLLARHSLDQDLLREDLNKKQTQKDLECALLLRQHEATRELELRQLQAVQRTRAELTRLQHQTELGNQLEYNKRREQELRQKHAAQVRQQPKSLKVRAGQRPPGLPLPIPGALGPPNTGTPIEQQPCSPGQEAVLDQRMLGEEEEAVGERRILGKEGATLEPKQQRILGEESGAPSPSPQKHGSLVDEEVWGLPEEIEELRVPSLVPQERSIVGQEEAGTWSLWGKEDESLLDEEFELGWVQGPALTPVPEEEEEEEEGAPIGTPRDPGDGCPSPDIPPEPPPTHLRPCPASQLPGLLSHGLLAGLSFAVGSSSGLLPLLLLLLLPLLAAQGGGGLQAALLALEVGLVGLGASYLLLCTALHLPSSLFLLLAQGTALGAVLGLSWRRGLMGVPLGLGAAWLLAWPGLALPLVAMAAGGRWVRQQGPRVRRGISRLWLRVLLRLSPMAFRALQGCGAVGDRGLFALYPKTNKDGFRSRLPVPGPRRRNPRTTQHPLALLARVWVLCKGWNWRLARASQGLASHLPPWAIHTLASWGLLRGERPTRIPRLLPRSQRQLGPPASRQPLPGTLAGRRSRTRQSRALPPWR
# [18] = target: influenza virus polymerase (PB1, PB2, NP, PA from A/California/04/2009 (H1N1) pdm09) (Influenza A virus, UniProt C3W5R8+C3W5R9); assay type: cell-based
# CHK1 = CHK1 (Homo sapiens, UniProt O14757); assay: biochemical
# JNK1 = JNK1 (Homo sapiens, UniProt P45983); assay: biochemical
# SRC = SRC (Homo sapiens, UniProt P12931); assay: biochemical
# FGFR1 = FGFR1 (Homo sapiens, UniProt P11362); assay: biochemical
# EPHA2 = EPHA2 (Homo sapiens, UniProt P29317); assay: biochemical
# EPHA2, sequence (P29317 24-976): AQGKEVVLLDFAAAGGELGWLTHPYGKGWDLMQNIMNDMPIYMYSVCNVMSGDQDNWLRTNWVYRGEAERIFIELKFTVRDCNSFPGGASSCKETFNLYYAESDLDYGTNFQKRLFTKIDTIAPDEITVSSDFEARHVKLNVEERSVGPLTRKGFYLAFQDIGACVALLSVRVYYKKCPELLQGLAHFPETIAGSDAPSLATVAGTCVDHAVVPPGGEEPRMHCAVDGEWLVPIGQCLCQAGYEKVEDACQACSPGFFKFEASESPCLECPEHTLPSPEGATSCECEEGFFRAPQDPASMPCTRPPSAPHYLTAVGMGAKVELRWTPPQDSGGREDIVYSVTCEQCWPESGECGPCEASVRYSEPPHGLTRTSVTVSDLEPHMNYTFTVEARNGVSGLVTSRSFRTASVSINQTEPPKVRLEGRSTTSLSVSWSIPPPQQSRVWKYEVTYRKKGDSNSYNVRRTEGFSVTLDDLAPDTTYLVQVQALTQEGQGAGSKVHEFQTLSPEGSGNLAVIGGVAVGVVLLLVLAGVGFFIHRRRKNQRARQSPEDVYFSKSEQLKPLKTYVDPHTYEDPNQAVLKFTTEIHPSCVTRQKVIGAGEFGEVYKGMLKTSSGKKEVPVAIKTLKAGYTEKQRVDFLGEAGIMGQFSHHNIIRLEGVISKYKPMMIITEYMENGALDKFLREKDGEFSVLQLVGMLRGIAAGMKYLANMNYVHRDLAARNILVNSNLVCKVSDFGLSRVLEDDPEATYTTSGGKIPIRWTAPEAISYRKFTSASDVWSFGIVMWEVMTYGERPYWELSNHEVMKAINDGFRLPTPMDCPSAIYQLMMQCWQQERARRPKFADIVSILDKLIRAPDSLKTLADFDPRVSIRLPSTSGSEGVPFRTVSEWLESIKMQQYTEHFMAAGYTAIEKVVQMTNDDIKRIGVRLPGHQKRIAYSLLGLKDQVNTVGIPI
# MINK = MINK (Homo sapiens, UniProt Q8N4C8); assay: biochemical
# PDK1 = PDK1 (Homo sapiens, UniProt O15530); assay: biochemical
# PKA = PKA (Homo sapiens, UniProt P17612); assay: biochemical
# KDR = KDR (Homo sapiens, UniProt P35968); assay: biochemical
# TNIK = TNIK (Homo sapiens, UniProt Q9UKE5); assay: biochemical
# [19] = tested on: Influenza virus A/California/07/2009 (H1N1)pdm09; assay: microbe, parasite or virus in culture; assay type: cell-based; conditions: H1N1, MDCK, read-out: EC50 (mean ± SD)
# [20] = tested on: Influenza virus A/Hong Kong/8/68 (H3N2); assay: microbe, parasite or virus in culture; assay type: cell-based; conditions: unidentified influenza virus, H3N2, MDCK, read-out: EC50 (mean ± SD)
# GSK3 beta = GSK3 beta (Homo sapiens, UniProt P49841); assay: biochemical
# LCK = LCK (Homo sapiens, UniProt P06239); assay: biochemical
# MAPKAPK2 = MAPKAPK2 (Homo sapiens, UniProt P49137); assay: biochemical
# MAP4K4 = MAP4K4 (Homo sapiens, UniProt O95819); assay: biochemical
# Aurora A = Aurora A (Homo sapiens, UniProt O14965); assay: biochemical
# Aurora A, sequence (O14965 whole entry): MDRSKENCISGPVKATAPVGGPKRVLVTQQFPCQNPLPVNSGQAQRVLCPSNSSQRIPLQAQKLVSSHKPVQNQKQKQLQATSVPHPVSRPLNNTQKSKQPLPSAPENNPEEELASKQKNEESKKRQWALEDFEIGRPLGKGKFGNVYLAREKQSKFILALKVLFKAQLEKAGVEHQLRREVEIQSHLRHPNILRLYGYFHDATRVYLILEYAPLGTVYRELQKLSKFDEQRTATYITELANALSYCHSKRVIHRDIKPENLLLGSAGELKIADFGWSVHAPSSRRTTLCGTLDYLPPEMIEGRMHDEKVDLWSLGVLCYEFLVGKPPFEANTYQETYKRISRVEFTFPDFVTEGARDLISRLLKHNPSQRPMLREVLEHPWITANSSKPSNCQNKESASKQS
# ABL1 = ABL1 (Homo sapiens, UniProt P00519); assay: biochemical
# ABL1, sequence (P00519 whole entry): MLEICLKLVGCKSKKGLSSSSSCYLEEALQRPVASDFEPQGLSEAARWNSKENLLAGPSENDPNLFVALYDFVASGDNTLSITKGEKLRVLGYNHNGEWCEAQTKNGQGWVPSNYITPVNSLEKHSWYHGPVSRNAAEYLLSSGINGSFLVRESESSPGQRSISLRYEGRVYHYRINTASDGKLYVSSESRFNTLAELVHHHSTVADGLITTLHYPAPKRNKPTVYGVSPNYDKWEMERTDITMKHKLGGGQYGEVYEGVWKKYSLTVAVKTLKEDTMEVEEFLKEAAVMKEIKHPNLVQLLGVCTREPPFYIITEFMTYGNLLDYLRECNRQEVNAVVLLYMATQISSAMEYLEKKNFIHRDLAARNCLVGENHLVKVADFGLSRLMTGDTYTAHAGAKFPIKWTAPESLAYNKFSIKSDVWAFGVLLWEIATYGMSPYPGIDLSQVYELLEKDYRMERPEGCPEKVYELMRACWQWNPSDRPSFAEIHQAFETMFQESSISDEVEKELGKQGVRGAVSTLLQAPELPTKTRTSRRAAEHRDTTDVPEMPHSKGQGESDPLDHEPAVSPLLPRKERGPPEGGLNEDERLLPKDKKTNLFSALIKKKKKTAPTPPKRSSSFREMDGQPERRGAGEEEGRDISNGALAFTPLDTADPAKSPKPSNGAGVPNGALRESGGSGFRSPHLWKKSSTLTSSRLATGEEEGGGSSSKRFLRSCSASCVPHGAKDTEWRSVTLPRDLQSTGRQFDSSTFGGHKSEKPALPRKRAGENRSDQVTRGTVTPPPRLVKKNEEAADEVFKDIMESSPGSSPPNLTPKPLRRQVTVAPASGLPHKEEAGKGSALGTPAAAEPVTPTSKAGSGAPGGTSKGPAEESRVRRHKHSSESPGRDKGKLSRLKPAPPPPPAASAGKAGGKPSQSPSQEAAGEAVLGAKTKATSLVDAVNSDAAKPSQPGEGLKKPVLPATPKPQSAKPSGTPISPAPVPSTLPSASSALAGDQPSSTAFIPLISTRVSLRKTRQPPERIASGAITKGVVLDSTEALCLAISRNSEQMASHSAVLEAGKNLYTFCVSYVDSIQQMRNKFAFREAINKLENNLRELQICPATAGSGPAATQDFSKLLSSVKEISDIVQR
# in vitro [21] = conditions: dog, CC50 (mean ± SD)
# CK1 alpha = CK1 alpha (Homo sapiens, UniProt P48729); assay: biochemical
# CAMK2 alpha = CAMK2 alpha (Homo sapiens, UniProt Q9UQM7); assay: biochemical
# MST4 = MST4 (Homo sapiens, UniProt Q9P289); assay: biochemical
# JAK2 = JAK2 (Homo sapiens, UniProt O60674); assay: biochemical
# JAK2, sequence (O60674 whole entry): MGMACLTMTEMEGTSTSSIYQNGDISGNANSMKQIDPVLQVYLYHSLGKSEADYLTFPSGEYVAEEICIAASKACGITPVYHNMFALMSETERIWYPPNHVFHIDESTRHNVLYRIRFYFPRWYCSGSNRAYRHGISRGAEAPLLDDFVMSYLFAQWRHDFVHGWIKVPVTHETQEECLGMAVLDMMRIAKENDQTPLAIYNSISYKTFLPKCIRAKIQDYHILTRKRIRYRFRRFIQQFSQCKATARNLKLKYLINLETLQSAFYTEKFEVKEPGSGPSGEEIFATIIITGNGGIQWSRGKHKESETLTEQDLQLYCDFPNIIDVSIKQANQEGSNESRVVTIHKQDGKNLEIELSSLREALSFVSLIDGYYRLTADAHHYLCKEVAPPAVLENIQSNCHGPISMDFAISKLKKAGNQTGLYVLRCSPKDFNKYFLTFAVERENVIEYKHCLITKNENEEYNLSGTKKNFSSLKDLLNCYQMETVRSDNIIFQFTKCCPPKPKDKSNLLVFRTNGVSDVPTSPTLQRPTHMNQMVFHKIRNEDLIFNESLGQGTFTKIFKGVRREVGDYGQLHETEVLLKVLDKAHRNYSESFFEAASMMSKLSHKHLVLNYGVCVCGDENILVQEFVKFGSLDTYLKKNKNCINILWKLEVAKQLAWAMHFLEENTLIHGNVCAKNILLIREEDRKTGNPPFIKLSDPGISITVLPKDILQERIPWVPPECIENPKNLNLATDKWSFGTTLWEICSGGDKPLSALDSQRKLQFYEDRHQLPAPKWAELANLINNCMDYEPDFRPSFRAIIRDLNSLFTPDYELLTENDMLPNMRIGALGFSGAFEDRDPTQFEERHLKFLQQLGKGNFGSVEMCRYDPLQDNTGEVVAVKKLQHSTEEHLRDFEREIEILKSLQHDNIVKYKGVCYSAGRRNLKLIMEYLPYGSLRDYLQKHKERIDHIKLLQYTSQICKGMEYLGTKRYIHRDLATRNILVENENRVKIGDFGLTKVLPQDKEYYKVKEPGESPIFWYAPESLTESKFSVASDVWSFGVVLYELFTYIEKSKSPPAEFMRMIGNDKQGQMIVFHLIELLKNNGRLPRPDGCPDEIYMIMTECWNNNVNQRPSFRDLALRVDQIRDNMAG
smiles,measurement,setting,value
"CCOC(=O)/C=C/[C@H](C[C@@H]1CCNC1=O)NC(=O)[C@@H](CC(=O)[C@@H](NC(=O)c1cc(C)on1)C(C)C)Cc1ccc(F)cc1 [AG7088, reference compound]",CC50,[1],> 1 µM
same,EC50,EV71 Shenzhen/120F1/09,0.012 µM
"Nc1nc2c(ncn2COCCO)c(=O)[nH]1 [Acyclovir, reference compound]",EC50,HSV-1 GHSV-UL46,0.655 µM
same,CC50,[2],> 10 µM
"C=C1[C@H](CO)[C@@H](O)C[C@@H]1n1cnc2c(=O)[nH]c(N)nc21 [Entecavir, reference compound]",CC50,in vitro [3],> 0.02 µM
same,EC50,HBV,0.000338 µM
CCOC(=O)C1=C[C@@H](OC(CC)CC)[C@H](NC(C)=O)[C@@H](N)C1 [Oseltamivir],EC50,[4],1.34 ± 1.92 µM
same,IC50,[5],1690 µM
same,EC50,[6],2.43 ± 1.24 µM
same,EC50,[7],4.89 ± 7.37 µM
same,body weight of mice,[8],did not significantly reduce the body weight
same,survival rate vs vehicle,[8],could improve the survival rate
same,time of death relative to vehicle group,[8],died after 7 h—earlier than in the vehicle group
same,viral load in nasal lavage fluid vs vehicle,[9],decreased significantly
same,EC50,Influenza virus B/Lee/40,2.94 ± 3.62 µM
same,CC50,MDCK cells,> 100 µM
same,CC50,[10],> 100 µM
same,IC50,A/Anhui/01/2013 (H7N9),175 µM
same,EC50,[11],5.62 ± 2.78 µM
same,animals died (of n = 8),[12],five
same,day on which body weight of surviving mice began to recover,[12],9 days
same,day on which weight of surviving mice increased gradually,[12],9th
same,mice died (of n = 8),[12],three
same,EC50,[13],10.1 ± 9.82 µM
same,mortality rate,A/PR/8/34 (H1N1),90%
same,IC50,[14],1650 µM
"Cc1cc(CCCOc2c(C)cc(-c3noc(C(F)(F)F)n3)cc2C)on1 [Pleconaril, reference compound]",CC50,[15],> 5 µM
same,EC50,HRV 1B,0.028 µM
"O=C(O)[C@H]1C2CCC(CC2)[C@@H]1Nc1nc(-c2c[nH]c3ncc(F)cc23)ncc1F [VX-787, reference compound]",IC50,CDK2,> 10 µM
same,EC50,[4],0.000295 ± 0.000111 µM
same,day on which mice began to regain body weight,[16],4 days
same,IC50,p38 alpha,> 10 µM
same,EC50,[17],0.00015 ± 2e-05 µM
same,IC50,[5],0.00192 ± 0.000492 µM
same,IC50,DYRK3,> 10 µM
same,EC50,[6],0.000206 ± 6.1e-05 µM
same,EC50,[7],0.00076 ± 0.000355 µM
same,IC50,TAOK2,> 10 µM
same,body weight of mice,[8],did not significantly reduce the body weight
same,survival rate vs vehicle,[8],could improve the survival rate
same,time of death relative to vehicle group,[8],died after 7 h—earlier than in the vehicle group
same,IC50,"[18]; read-out: IC50, Mean ± SEM",0.00145 ± 0.00034 µM
same,IC50,"[18]; read-out: IC50, experiment 1",0.00128 µM
same,IC50,"[18]; read-out: IC50, experiment 2",0.00123 µM
same,IC50,"[18]; read-out: IC50, experiment 3",0.00184 µM
same,IC50,CHK1,> 10 µM
same,IC50,JNK1,> 10 µM
same,IC50,SRC,> 10 µM
same,IC50,FGFR1,> 10 µM
same,IC50,EPHA2,> 10 µM
same,IC50,MINK,> 3.33 µM
same,IC50,PDK1,> 10 µM
same,IC50,PKA,> 10 µM
same,IC50,KDR,> 10 µM
same,viral load in nasal lavage fluid vs vehicle,[9],decreased but showed no statistical significance
same,IC50,TNIK,> 3.33 µM
same,EC50,[19],0.00024 ± 0.00014 µM
same,EC50,[20],0.000162 ± 3.4e-05 µM
same,EC50,Influenza virus B/Lee/40,> 0.01 µM
same,IC50,A/Anhui/01/2013 (H7N9),0.000834 ± 0.000204 µM
same,IC50,GSK3 beta,> 3.33 µM
same,IC50,LCK,> 10 µM
same,EC50,[11],0.000255 ± 5.5e-05 µM
same,IC50,MAPKAPK2,> 10 µM
same,IC50,MAP4K4,1.78 µM
same,IC50,Aurora A,1.11 µM
same,animals died (of n = 8),[12],four
same,day on which body weight of surviving mice began to recover,[12],8 days
same,day on which weight of surviving mice increased gradually,[12],8th
same,mice died (of n = 8),[12],no mice died
same,survival rate,[12],100%
same,IC50,ABL1,> 10 µM
same,CC50,in vitro [21],21.1 ± 9.76 µM
same,EC50,[13],0.000315 ± 7e-05 µM
same,IC50,CK1 alpha,> 10 µM
same,IC50,CAMK2 alpha,> 10 µM
same,IC50,MST4,> 10 µM
same,mortality rate,A/PR/8/34 (H1N1),70%
same,IC50,[14],9.18e-05 ± 1.45e-05 µM
same,IC50,JAK2,> 10 µM
